Consider seven compounds from patent publication US4794079A, “Determination of hydrogen peroxide using fluorogenic dihydroquinolone and dihydrocoumarin indicators” (Miles Inc., priority 1985, dated 1988).

The target in the test is T1, horseradish peroxidase (Armoracia rusticana, UniProt P00433).
T1 sequence (P00433 31-353): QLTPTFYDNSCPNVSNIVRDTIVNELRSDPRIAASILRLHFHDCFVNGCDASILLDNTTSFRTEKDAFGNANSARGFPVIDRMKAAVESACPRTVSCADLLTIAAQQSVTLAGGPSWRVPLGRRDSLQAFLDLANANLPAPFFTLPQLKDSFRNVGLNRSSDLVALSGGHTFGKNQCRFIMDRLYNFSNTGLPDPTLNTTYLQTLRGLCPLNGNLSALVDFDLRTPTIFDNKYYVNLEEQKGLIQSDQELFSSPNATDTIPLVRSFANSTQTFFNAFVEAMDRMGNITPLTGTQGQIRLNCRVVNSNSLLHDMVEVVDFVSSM
Description: Detection of hydrogen peroxide: fluorescence of indicator compounds after adding horseradish peroxidase and hydrogen peroxide. It counts as biochemical. The note with it: 1.0 μM compound; for Relative Fluorescence of Indicator Compounds, Fluorescence Units, 0 secs: sodium phosphate buffer pH 7.0 or 7.5, 37° C., nM of fluorescent standard 7-hydroxy-3-(N-ethylcarboxamido)coumarin giving the same light output. As for the experimental part:
A 1.0 μM, pH 7.0 or 7.5, sodium phosphate buffer solution of the dihydroquinolones and dihydrocoumarins listed in the Table below were prepared by successive dilutions with the buffer of an ethanol or DMF-ethanol solution of the appropriate compound. The solution was warmed in a 37° C. bath, then a 40 microliter (μL) of 1 mg/mL horseradish peroxidase enzyme was added in one portion. The contents of the cuvette were mixed and the fluorescence was monitored for at least 50 seconds (the quartz cell and its contents were held at a constant 37° C.). A quantity of hydrogen peroxide diluted in cold water and stored at 0° for less than eight hours was then added in an amount suitable for the desired ratio of dihydroquinolone to peroxide. The fluorescence was then monitored over a 600 second time span. Fluorescent values for compounds (5), (6), (7), (11), (16), and (17) were reported in units of concentration (nM) of the flourescent standard 7 -hydroxy-3-(N-ethylcarboxamido) coumarin (U.S. Pat. No. 4,273,715) which would be required to achieve the same fluorescence light output as the subject of study. Compound (8) is reported in photons/second. All slit widths were set at 2 nm (nanometers).
Fluorescence was measured in quartz cuvettes on an SLM 8000 spectrofluorometer (SLM Instruments, Inc. Urbana, Ill.). A Hewlett-Packard8915A computer was used to process spectra.

Where [1] appears, read: 25 secs, pH 7.0 or 7.5, 37° C., nM of fluorescent standard equivalent.
[2] abbreviates: 100 secs, pH 7.0 or 7.5, 37° C., nM of fluorescent standard equivalent.
[3] abbreviates: 200 secs, pH 7.0 or 7.5, 37° C., nM of fluorescent standard equivalent.
Where [4] appears, read: 600 secs, pH 7.0 or 7.5, 37° C., nM of fluorescent standard equivalent.

Turning to `CCOC(=O)C1Cc2ccc(N(C)C)cc2NC1=O` (stereo not shown) [Compound 5, 7-Dimethylamino-3-carbethoxy-3,4-dihydro-2-quinolone], the “Relative Fluorescence of Indicator Compounds, Fluorescence Units, 0 secs” value (0 secs) is 1.4 nM. Also, the “Relative Fluorescence of Indicator Compounds, Fluorescence Units, 25 secs” value (shortened to “Relative Fluorescence … 25 secs”) under setting [1] is listed as 81.5 nM. The “Relative Fluorescence of Indicator Compounds, Fluorescence Units, 100 secs” value (“Relative Fluorescence … 100 secs” below) under setting [2] is recorded as 101.5 nM. Besides, the “Relative Fluorescence of Indicator Compounds, Fluorescence Units, 200 secs” value (shortened to “Relative Fluorescence … 200 secs”) under setting [3] was 101.5 nM. Further, the “Relative Fluorescence of Indicator Compounds, Fluorescence Units, 600 secs” value (“Relative Fluorescence … 600 secs” for short) under setting [4] came out at 101.25 nM.
For `CCOC(=O)C1Cc2ccc(NC)cc2NC1=O` (stereo not shown) [Compound 6, 7-Methylamino-3-carbethoxy-3,4-dihydro-2-quinolone], the “Relative Fluorescence of Indicator Compounds, Fluorescence Units, 0 secs” value (0 secs) is recorded as less than 0.12 nM. The “Relative Fluorescence … 25 secs” value under setting [1] was 4.0 nM. In addition, the “Relative Fluorescence of Indicator Compounds, Fluorescence Units, 50 secs” value (50 secs, pH 7.0 or 7.5, 37° C., nM of fluorescent standard equivalent) is 8.75 nM. Also, the “Relative Fluorescence … 100 secs” value under setting [2] was determined as 11.0 nM. Under setting [3], the “Relative Fluorescence … 200 secs” value was 11.25 nM. The “Relative Fluorescence … 600 secs” value under setting [4] is 10.8 nM.
For the compound `CN(C)c1ccc2c(c1)NC(=O)C(C(=O)[O-])C2.[K+]` (stereo not shown) [Compound 7, 7-Dimethylamino-3-carboxy-3,4-dihydro-2-quinolone potassium salt], the “Relative Fluorescence of Indicator Compounds, Fluorescence Units, 0 secs” value (0 secs) was 1.4 nM. Besides, the “Relative Fluorescence … 25 secs” value under setting [1] is 12.3 nM. In addition, under setting [2], the “Relative Fluorescence … 100 secs” value amounted to 22.2 nM. Also, under setting [3], the “Relative Fluorescence … 200 secs” value was found to be 24.3 nM. For the same compound, under setting [4], the “Relative Fluorescence … 600 secs” value was 24.6 nM.
For the compound `CCNC(=O)C1Cc2ccc(N(C)C)cc2NC1=O` (stereo not shown) [Compound 8, 7-Dimethylamino-3-(N-ethylcarboxamido)-3,4-dihydro-2-quinolone], the “Fluorescence Units, 0 secs” value (0 secs, pH 7.0 or 7.5, 37° C., excitation 400 nm, emission 450 nm) is reported as less than 428 photons/second. For the setting “25 secs, pH 7.0 or 7.5, 37° C., excitation 400 nm, emission 450 nm”, the “Fluorescence Units, 25 secs” value is listed as 20,142 photons/second. The “Fluorescence Units, 50 secs” value (50 secs, pH 7.0 or 7.5, 37° C., excitation 400 nm, emission 450 nm) was 27,000 photons/second. In addition, the “Fluorescence Units, 100 secs” value (100 secs, pH 7.0 or 7.5, 37° C., excitation 400 nm, emission 450 nm) is on record as 29,000 photons/second. Under “200 secs, pH 7.0 or 7.5, 37° C., excitation 400 nm, emission 450 nm”, the “Fluorescence Units, 200 secs” value is 30,000 photons/second. For the same compound, where the note is “600 secs, pH 7.0 or 7.5, 37° C., excitation 400 nm, emission 450 nm”, the “Fluorescence Units, 600 secs” value is on record as 30,000 photons/second.
On to `CCNC(=O)C1Cc2ccc(N(C)C)cc2N(C)C1=O` (stereo not shown) [Compound 11, 7-Dimethylamino-3-(N-ethylcarboxamido)-3,4-dihydro-1-methyl-2-quinolone], for which the “Relative Fluorescence of Indicator Compounds, Fluorescence Units, 0 secs” value (0 secs) is recorded as 4.3 nM. For the same compound, the “Relative Fluorescence … 25 secs” value under setting [1] was 8.9 nM. For the same compound, the “Relative Fluorescence … 100 secs” value under setting [2] amounted to 101.5 nM. In addition, under setting [3], the “Relative Fluorescence … 200 secs” value was found to be 133.5 nM. Moreover, the “Relative Fluorescence … 600 secs” value under setting [4] was 142.5 nM.
Consider `CCOC(=O)C1Cc2ccc(O)cc2N(C)C1=O` (stereo not shown) [Compound 16, 7-Hydroxy-3-carbethoxy-3,4-dihydro-1-methyl-2-quinolone], for which, under “0 secs”, the “Relative Fluorescence of Indicator Compounds, Fluorescence Units, 0 secs” value is reported as 1.3 nM. The “Relative Fluorescence … 25 secs” value under setting [1] is 4.3 nM. In addition, the “Relative Fluorescence … 100 secs” value under setting [2] amounted to 5.7 nM. The “Relative Fluorescence … 200 secs” value under setting [3] is listed as 6.3 nM. For the same compound, under setting [4], the “Relative Fluorescence … 600 secs” value worked out at 6.3 nM.
For `CCOC(=O)C1Cc2cc3c4c(c2OC1=O)CCCN4CCC3` (stereo not shown) [Compound 17, [2,3,6,7,9,10]-Hexahydro-10-carbethoxy-11-oxo-1H,5H,11H-[1]benzopyran[6,7,8-ij]quinolizine], the “Relative Fluorescence of Indicator Compounds, Fluorescence Units, 0 secs” value (0 secs) was 0.6 nM. For the same compound, the “Relative Fluorescence … 25 secs” value under setting [1] amounted to 8.8 nM. For the same compound, the “Relative Fluorescence … 100 secs” value under setting [2] amounted to 13.0 nM. Under setting [3], the “Relative Fluorescence … 200 secs” value is on record as 25.9 nM. The “Relative Fluorescence … 600 secs” value under setting [4] came to 42.5 nM.
